Results on 12 compounds are retold here after US20250206732A1, “COMPOUNDS AND METHODS FOR THE TARGETED DEGRADATION OF KRAS” (Arvinas Operations, Inc., priority 2022, published 2025).

This assay addresses T1, AsPC-1 HiBiT-KRASG12D (Homo sapiens, UniProt P01116, G12D).
T1 construct: insert the HiBiT tag onto the N-terminus of one or more of the endogenous KRAS alleles; endogenous in cells; host or cells: AsPC-1 (ATCC CRL-1682), CRISPR-Cas9 knock-in clone, one tagged allele
Put plainly: HiBiT degradation assay (G12D), AsPC-1 HiBiT-KRASG12D cells. The conditions noted are these: 24 hours treatment; for DC50: AsPC-1 HiBiT-KRASG12D cells, HiBiT luminescence; for Dmax: ASPC1, AsPC-1 HiBiT-KRASG12D cells, maximum degradation observed. It counts as cell-based. The essentials: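 In this degradation format, an engineered AsPC-1 clone with HiBiT fused to the KRAS N-terminus is exposed to compounds for 24 hours, after which remaining tagged protein is quantified by lytic HiBiT luminescence.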
On the technique in general: The HiBiT peptide binds its large partner to form an active luciferase.

Structures are written as SMILES. Some results are limits rather than exact numbers.

T1 sequence (P01116 1-188 isoform P01116-2 G12D): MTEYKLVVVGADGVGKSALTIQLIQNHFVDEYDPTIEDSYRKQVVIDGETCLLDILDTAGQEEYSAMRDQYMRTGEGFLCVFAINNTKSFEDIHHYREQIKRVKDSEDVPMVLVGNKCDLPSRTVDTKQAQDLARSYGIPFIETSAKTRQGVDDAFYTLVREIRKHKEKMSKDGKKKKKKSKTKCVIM

With `C#Cc1c(F)ccc2cccc(-c3ncc4c(N5CC6CCC(C5)N6)nc(OC[C@@]56CCCN5[C@H](COc5cc([C@@H](C(=O)N7C[C@H](O)C[C@H]7C(=O)N[C@@H](C)c7ccc(-c8scnc8C)cc7)C(C)C)on5)CC6)nc4c3F)c12` [Compound 51, (2S,4R)-1-[(2S)-2-(3-{[(3S,7aS)-7a-{[(4-{3,8-diazabicyclo[3.2.1]octan-3-yl}-7-(8-ethynyl-7-fluoronaphthalen-1-yl)-8-fluoropyrido[4,3-d]pyrimidin-2-yl)oxy]methyl}-hexahydro-1H-pyrrolizin-3-yl]methoxy}-1,2-oxazol-5-yl)-3-methylbutanoyl]-4-hydroxy-N-[(1S)-1-[4-(4-methyl-1,3-thiazol-5-yl)phenyl]ethyl]pyrrolidine-2-carboxamide], the DC50 (usually the concentration giving 50% degradation) was greater than 3000 nM.

`C#Cc1c(F)ccc2cccc(-c3ncc4c(N5CC6CCC(C5)N6)nc(OC[C@@]56CCCN5[C@H](COc5cc([C@H](C(=O)N7C[C@H](O)C[C@H]7C(=O)N[C@@H](C)c7ccc(-c8scnc8C)cc7)C(C)C)on5)CC6)nc4c3F)c12` [Compound 52, (2S,4R)-1-[(2R)-2-(3-{[(3S,7aS)-7a-{[(4-{3,8-diazabicyclo[3.2.1]octan-3-yl}-7-(8-ethynyl-7-fluoronaphthalen-1-yl)-8-fluoropyrido[4,3-d]pyrimidin-2-yl)oxy]methyl}-hexahydro-1H-pyrrolizin-3-yl]methoxy}-1,2-oxazol-5-yl)-3-methylbutanoyl]-4-hydroxy-N-[(1S)-1-[4-(4-methyl-1,3-thiazol-5-yl)phenyl]ethyl]pyrrolidine-2-carboxamide]: the Dmax (as a rule, the largest share of the target that was removed) fell in the range of 80 to 100% and the half-maximal degradation concentration (DC50) is less than 600 nM. `C#Cc1c(F)ccc2cccc(-c3ncc4c(N5CC6CCC(C5)N6)nc(OC[C@]56CCCN5[C@H](COC(=O)N5CCN(c7cc([C@H](C(=O)N8C[C@H](O)C[C@H]8C(=O)N[C@@H](C)c8ccc(-c9scnc9C)cc8)C(C)C)on7)CC5)CC6)nc4c3F)c12` [Compound 53, [(3S,7aR)-7a-{[(4-{3,8-diazabicyclo[3.2.1]octan-3-yl}-7-(8-ethynyl-7-fluoronaphthalen-1-yl)-8-fluoropyrido[4,3-d]pyrimidin-2-yl)oxy]methyl}-hexahydro-1H-pyrrolizin-3-yl]methyl 4-{5-[(2R)-1-[(2S,4R)-4-hydroxy-2-{[(1S)-1-[4-(4-methyl-1,3-thiazol-5-yl)phenyl]ethyl]carbamoyl}pyrrolidin-1-yl]-3-methyl-1-oxobutan-2-yl]-1,2-oxazol-3-yl}piperazine-1-carboxylate] showed a Dmax of 80 to 100% and a DC50 of less than 600 nM. For `CCc1cccc2cccc(-c3ncc4c(N5CC6CCC(C5)N6)nc(OC[C@@]56CCCN5[C@H](COc5cc([C@H](C(=O)N7C[C@H](O)C[C@H]7C(=O)N[C@@H](C)c7ccc(-c8scnc8C)cc7)C(C)C)on5)CC6)nc4c3F)c12` [Compound 54, (2S,4R)-1-[(2R)-2-(3-{[(3S,7aS)-7a-{[(4-{3,8-diazabicyclo[3.2.1]octan-3-yl}-7-(8-ethylnaphthalen-1-yl)-8-fluoropyrido[4,3-d]pyrimidin-2-yl)oxy]methyl}-hexahydro-1H-pyrrolizin-3-yl]methoxy}-1,2-oxazol-5-yl)-3-methylbutanoyl]-4-hydroxy-N-[(1S)-1-[4-(4-methyl-1,3-thiazol-5-yl)phenyl]ethyl]pyrrolidine-2-carboxamide] the same measures were 80 to 100% and less than 600 nM.

For `CCc1cccc2cccc(-c3ncc4c(N5CC6CCC(C5)N6)nc(OC[C@@]56CCCN5[C@H](COc5cc([C@@H](C(=O)N7C[C@H](O)C[C@H]7C(=O)N[C@@H](C)c7ccc(-c8scnc8C)cc7)C(C)C)on5)CC6)nc4c3F)c12` [Compound 55, (2S,4R)-1-[(2S)-2-(3-{[(3S,7aS)-7a-{[(4-{3,8-diazabicyclo[3.2.1]octan-3-yl}-7-(8-ethylnaphthalen-1-yl)-8-fluoropyrido[4,3-d]pyrimidin-2-yl)oxy]methyl}-hexahydro-1H-pyrrolizin-3-yl]methoxy}-1,2-oxazol-5-yl)-3-methylbutanoyl]-4-hydroxy-N-[(1S)-1-[4-(4-methyl-1,3-thiazol-5-yl)phenyl]ethyl]pyrrolidine-2-carboxamide], the DC50 was greater than 3000 nM. `C#Cc1c(F)ccc2cc(O)cc(-c3ncc4c(N5CC6CCC(C5)N6)nc(OC[C@]56CCCN5[C@H](COC(=O)N5CCN(c7cc([C@H](C(=O)N8C[C@H](O)C[C@H]8C(=O)N[C@@H](C)c8ccc(-c9scnc9C)cc8)C(C)C)on7)CC5)CC6)nc4c3F)c12` [Compound 56, [(3S,7aR)-7a-{[(4-{3,8-diazabicyclo[3.2.1]octan-3-yl}-7-(8-ethynyl-7-fluoro-3-hydroxynaphthalen-1-yl)-8-fluoropyrido[4,3-d]pyrimidin-2-yl)oxy]methyl}-hexahydro-1H-pyrrolizin-3-yl]methyl 4-{5-[(2R)-1-[(2S,4R)-4-hydroxy-2-{[(1S)-1-[4-(4-methyl-1,3-thiazol-5-yl)phenyl]ethyl]carbamoyl}pyrrolidin-1-yl]-3-methyl-1-oxobutan-2-yl]-1,2-oxazol-3-yl}piperazine-1-carboxylate]: the Dmax lay in the range of 80 to 100% and the DC50 was less than 600 nM. Regarding `CCc1cccc2cccc(-c3ncc4c(N5CC6CCC(C5)N6)nc(OC[C@]56CCCN5[C@H](COC(=O)N5CCN(c7cc([C@H](C(=O)N8C[C@H](O)C[C@H]8C(=O)N[C@@H](C)c8ccc(-c9scnc9C)cc8)C(C)C)on7)CC5)CC6)nc4c3F)c12` [Compound 57], the Dmax was in the range of 60 to 80% and the half-maximal degradation concentration (DC50) was less than 600 nM. In turn, `C#Cc1c(F)ccc2cc(O)cc(-c3ncc4c(N5CC6CCC(C5)N6)nc(OC[C@@]56CCCN5[C@H](COC(=O)N5CCN(c7cc([C@H](C(=O)N8C[C@H](O)C[C@H]8C(=O)N[C@@H](C)c8ccc(-c9scnc9C)cc8)C(C)C)on7)CC5)CC6)nc4c3F)c12` [Compound 58, [(3S,7aS)-7a-{[(4-{3,8-diazabicyclo[3.2.1]octan-3-yl}-7-(8-ethynyl-7-fluoro-3-hydroxynaphthalen-1-yl)-8-fluoropyrido[4,3-d]pyrimidin-2-yl)oxy]methyl}-hexahydro-1H-pyrrolizin-3-yl]methyl 4-{5-[(2R)-1-[(2S,4R)-4-hydroxy-2-{[(1S)-1-[4-(4-methyl-1,3-thiazol-5-yl)phenyl]ethyl]carbamoyl}pyrrolidin-1-yl]-3-methyl-1-oxobutan-2-yl]-1,2-oxazol-3-yl}piperazine-1-carboxylate] displayed a maximal degradation (Dmax) of 80 to 100% and a DC50 of less than 600 nM. `C#Cc1c(F)ccc2cc(O)cc(-c3ncc4c(N5CC6CCC(C5)N6)nc(OC[C@@H]5CC[C@@H](COC(=O)N6CCN(c7cc([C@H](C(=O)N8C[C@H](O)C[C@H]8C(=O)N[C@@H](C)c8ccc(-c9scnc9C)cc8)C(C)C)on7)CC6)N5C)nc4c3F)c12` [Compound 59, [(2S,5S)-5-{[(4-{3,8-diazabicyclo[3.2.1]octan-3-yl}-7-(8-ethynyl-7-fluoro-3-hydroxynaphthalen-1-yl)-8-fluoropyrido[4,3-d]pyrimidin-2-yl)oxy]methyl}-1-methylpyrrolidin-2-yl]methyl 4-{5-[(2R)-1-[(2S,4R)-4-hydroxy-2-{[(1S)-1-[4-(4-methyl-1,3-thiazol-5-yl)phenyl]ethyl]carbamoyl}pyrrolidin-1-yl]-3-methyl-1-oxobutan-2-yl]-1,2-oxazol-3-yl}piperazine-1-carboxylate] came in with a Dmax of 80 to 100% and a DC50 of less than 600 nM.

As for `Cc1ncsc1-c1ccc([C@H](C)NC(=O)[C@@H]2C[C@@H](O)CN2C(=O)[C@@H](c2cc(OCC3CCN(CCOc4nc(N5CC6CCC(C5)N6)c5cnc(-c6cc(O)cc7cccc(C)c67)c(F)c5n4)CC3)no2)C(C)C)cc1` [Compound 60, (2S,4R)-1-[(2R)-2-{3-[(1-{2-[(4-{3,8-diazabicyclo[3.2.1]octan-3-yl}-8-fluoro-7-(3-hydroxy-8-methylnaphthalen-1-yl)pyrido[4,3-d]pyrimidin-2-yl)oxy]ethyl}piperidin-4-yl)methoxy]-1,2-oxazol-5-yl}-3-methylbutanoyl]-4-hydroxy-N-[(1S)-1-[4-(4-methyl-1,3-thiazol-5-yl)phenyl]ethyl]pyrrolidine-2-carboxamide], the Dmax fell in the range of 60 to 80% and the DC50 is less than 600 nM. Regarding `Cc1ncsc1-c1ccc([C@H](C)NC(=O)[C@@H]2C[C@@H](O)CN2C(=O)[C@@H](c2cc(OC[C@@H]3CC[C@]4(COc5nc(N6CC7CCC(C6)N7)c6cnc(-c7cccc8ccc(F)c(F)c78)c(F)c6n5)CCCN34)no2)C(C)C)cc1` [Compound 61, (2S,4R)-1-[(2R)-2-(3-{[(3S,7aS)-7a-{[(4-{3,8-diazabicyclo[3.2.1]octan-3-yl}-7-(7,8-difluoronaphthalen-1-yl)-8-fluoropyrido[4,3-d]pyrimidin-2-yl)oxy]methyl}-hexahydro-1H-pyrrolizin-3-yl]methoxy}-1,2-oxazol-5-yl)-3-methylbutanoyl]-4-hydroxy-N-[(1S)-1-[4-(4-methyl-1,3-thiazol-5-yl)phenyl]ethyl]pyrrolidine-2-carboxamide], the greatest degradation seen (Dmax) was 80 to 100% and the half-maximal degradation concentration (DC50) is less than 600 nM.

In the case of `Cc1ncsc1-c1ccc([C@H](C)NC(=O)[C@@H]2C[C@@H](O)CN2C(=O)[C@H](c2cc(OC[C@@H]3CC[C@]4(COc5nc(N6CC7CCC(C6)N7)c6cnc(-c7cccc8ccc(F)c(F)c78)c(F)c6n5)CCCN34)no2)C(C)C)cc1` [Compound 62, (2S,4R)-1-[(2S)-2-(3-{[(3S,7aS)-7a-{[(4-{3,8-diazabicyclo[3.2.1]octan-3-yl}-7-(7,8-difluoronaphthalen-1-yl)-8-fluoropyrido[4,3-d]pyrimidin-2-yl)oxy]methyl}-hexahydro-1H-pyrrolizin-3-yl]methoxy}-1,2-oxazol-5-yl)-3-methylbutanoyl]-4-hydroxy-N-[(1S)-1-[4-(4-methyl-1,3-thiazol-5-yl)phenyl]ethyl]pyrrolidine-2-carboxamide], the DC50 is greater than 3000 nM.
